Patent publication US12496329B2, “Methods of using and compositions including an incretin analog” (Eli Lilly and Company, priority 2021, dated 2025)
Like-named read-outs stand apart in the source and are kept apart here.

How the values were obtained:
[1] = SAD study: plasma pharmacokinetics after a single SC dose; format: in vivo; details: both sexes, human
Description: (§1) Studies are designed to evaluate the safety, tolerability, pharmacodynamics (PD) and pharmacokinetics (PK) of the GGG tri-receptor agonist (SEQ ID NO:1) in healthy individuals. The SAD study is a randomized, investigator- and participant-blind, placebo-controlled, single-dose, single-site, dose-escalation study conducted in healthy individuals (e.g., overtly healthy females or males aged 21-65 years, inclusive, with a BMI 19-40 kg/m^2 at screening).
(§2) Six dose levels of the GGG tri-receptor agonist-0.1, 0.3, 1.0, 3.0, 4.5 and 6.0 mg—are explored in the SAD study, as well as placebo (i.e., 0.0 mg). A dose escalation of the GGG tri-receptor agonist is assessed in cohorts of healthy individuals (e.g., 6 individuals receiving the GGG tri-receptor agonist and 2 individuals receiving placebo per cohort). Staggered dosing is performed for each cohort, in which a new higher dose of the GGG tri-receptor agonist is administered. All injections are administered into the SC tissue of an abdominal wall, in a right or left lower quadrant.
Blood samples are collected pre-dose and at 4 hours (hr), 10 hr, 14 hr, 24 hr (Day 1), 48 hr (Day 2), 72 hr (Day 3), 96 hr (Day 4), 120 hr ([…]), 168 hr (Day 7), 336 hr (Day 14), 672 hr (Day 28) and 1008 hr (Day 42) post-dose to determine plasma concentration of the GGG tri-receptor agonist. Plasma concentrations are used to compute PK parameters using standard non-compartmental methods in a validated software program (Phoenix WinNonlin Version 8.1).
Bioanalytical methods: plasma samples are analyzed at Q2 Solutions (Ithaca, NY). The samples are analyzed for the GGG tri-receptor agonist using a validated liquid chromatography high resolution mass spectrometry method. The lower limit of quantification is 1.00 ng/mL and the upper limit of quantification is 500.00 ng/ml. Samples above a limit of quantification are diluted and reanalyzed to yield results within the calibrated range. The intra-assay accuracy (% relative error) during validation ranges from −6.3% to 15.7%. The intra-assay precision (% relative standard deviation) during validation is ≤14.7%. The GGG tri-receptor agonist is stable for up to 96 days when stored at about-20° C. and about −70° C.
Actual sampling times are used in the calculation of all PK parameters and concentration versus time profiles.
Concentration values below the quantifiable lower limit of the assay are excluded from the calculation of PK parameters, except for those prior to the first measurable concentration, which are set to a value of 0.
A concentration average is plotted for a given sample if two thirds of the individual data at the time point have quantifiable measurements. Concentrations at sampling times exceeding ±10% of the scheduled time ware excluded from the average concentration profiles.

[2] = SAD study: safety and tolerability; format: in vivo, human
Description: as §1, §2
Safety analyses: Safety parameters assessed during the study included: AEs (with special interest to GI AEs such as nausea, vomiting, and diarrhea), laboratory parameters (with special attention to hepatic and pancreatic biomarkers), physical examinations/medical assessments, vital signs and ECGs, BW, injection site reactions, hypersensitivity reactions, and glucose monitoring (with special attention to hypoglycemia).

For `CC[C@H](C)[C@H](NC(=O)[C@H](Cc1ccccc1)NC(=O)[C@H](C)NC(=O)C(C)(C)NC(=O)[C@H](CCC(N)=O)NC(=O)[C@H](C)NC(=O)[C@H](CCCCNC(=O)COCCOCCNC(=O)CC[C@H](NC(=O)CCCCCCCCCCCCCCCCCCC(=O)O)C(=O)O)NC(=O)[C@H](CCCCN)NC(=O)[C@H](CC(=O)O)NC(=O)[C@H](CC(C)C)NC(=O)[C@](C)(CC(C)C)NC(=O)[C@@H](NC(=O)[C@H](CO)NC(=O)[C@H](Cc1ccc(O)cc1)NC(=O)[C@H](CC(=O)O)NC(=O)[C@H](CO)NC(=O)[C@@H](NC(=O)[C@H](Cc1ccccc1)NC(=O)[C@@H](NC(=O)CNC(=O)[C@H](CCC(N)=O)NC(=O)C(C)(C)NC(=O)[C@@H](N)Cc1ccc(O)cc1)[C@@H](C)O)[C@@H](C)O)[C@@H](C)CC)C(=O)N[C@@H](CCC(=O)O)C(=O)N[C@@H](Cc1ccc(O)cc1)C(=O)N[C@@H](CC(C)C)C(=O)N[C@@H](CC(C)C)C(=O)N[C@@H](CCC(=O)O)C(=O)NCC(=O)NCC(=O)N1CCC[C@H]1C(=O)N[C@@H](CO)C(=O)N[C@@H](CO)C(=O)NCC(=O)N[C@@H](C)C(=O)N1CCC[C@H]1C(=O)N1CCC[C@H]1C(=O)N1CCC[C@H]1C(=O)N[C@@H](CO)C(N)=O` [GGG tri-receptor agonist, Y-Aib-QGTFTSDYSI-αMeL-LDKK((2-[2-(2-amino-ethoxy)-ethoxy]-acetyl)-(γGlu)-CO-(CH2)18-CO2H)AQ-Aib-AFIEYLLEGGPSSGAPPPS-NH2], which AUC(0-inf) ([1]; 0.1 mg single SC dose) is on record?
Its AUC(0-inf) is 3750 ng·h/mL.

What about the CL/F ([1]; 0.1 mg single SC dose) of the same compound?
The CL/F was 0.445 mL/min.

And the Cmax ([1]; 0.1 mg single SC dose)?
The Cmax was 11 ng/mL.

And the Tmax ([1]; 0.1 mg single SC dose)?
The Tmax was 72 h.

What about the AUC(0-inf) ([1]; 0.3 mg single SC dose) of the same compound?
The AUC(0-inf) was 10300 ng·h/mL.

And the CL/F ([1]; 0.3 mg single SC dose)?
Its CL/F is 0.485 mL/min.

And the Cmax ([1]; 0.3 mg single SC dose)?
The Cmax was 44.8 ng/mL.

And the Tmax ([1]; 0.3 mg single SC dose)?
Its Tmax is 72.2 h.

What about the AUC(0-inf) ([1]; 1.0 mg single SC dose) of the same compound?
Its AUC(0-inf) is 28300 ng·h/mL.

And the CL/F ([1]; 1.0 mg single SC dose)?
Its CL/F is 0.59 mL/min.

What about the Cmax ([1]; 1.0 mg single SC dose) of the same compound?
Its Cmax is 110 ng/mL.

What about the Tmax ([1]; 1.0 mg single SC dose) of the same compound?
Its Tmax is 48 h.

What about the AUC(0-inf) ([1]; 3.0 mg single SC dose) of the same compound?
The AUC(0-inf) was 69100 ng·h/mL.

What about the CL/F ([1]; 3.0 mg single SC dose) of the same compound?
Its CL/F is 0.723 mL/min.

And the Cmax ([1]; 3.0 mg single SC dose)?
The Cmax was 251 ng/mL.

What about the Tmax ([1]; 3.0 mg single SC dose) of the same compound?
The Tmax was 14 h.

What about the AUC(0-inf) ([1]; 4.5 mg single SC dose) of the same compound?
The AUC(0-inf) was 130000 ng·h/mL.

And the CL/F ([1]; 4.5 mg single SC dose)?
The CL/F was 0.577 mL/min.

What about the Cmax ([1]; 4.5 mg single SC dose) of the same compound?
Its Cmax is 589 ng/mL.

What about the Tmax ([1]; 4.5 mg single SC dose) of the same compound?
Its Tmax is 12 h.

What about the AUC(0-inf) ([1]; 6.0 mg single SC dose) of the same compound?
The AUC(0-inf) was 150000 ng·h/mL.

And the CL/F ([1]; 6.0 mg single SC dose)?
Its CL/F is 0.668 mL/min.

What about the Cmax ([1]; 6.0 mg single SC dose) of the same compound?
The Cmax was 635 ng/mL.

What about the Tmax ([1]; 6.0 mg single SC dose) of the same compound?
The Tmax was 24 h.

What about the half-life ([1]; sc, 0.1 mg, 0.1 mg single SC dose, read-out: t½ (converted)) of the same compound?
The half-life was 165 h.

And the half-life ([1]; sc, 0.3 mg, 0.3 mg single SC dose, read-out: t½ (converted))?
Its half-life is 139 h.

And the half-life ([1]; sc, 1 mg, 1.0 mg single SC dose, read-out: t½ (converted))?
Its half-life is 134 h.

And the half-life ([1]; sc, 3 mg, 3.0 mg single SC dose, read-out: t½ (converted))?
The half-life was 134 h.

What about the half-life ([1]; sc, 4.5 mg, 4.5 mg single SC dose, read-out: t½ (converted)) of the same compound?
Its half-life is 163 h.

And the half-life ([1]; sc, 6 mg, 6.0 mg single SC dose, read-out: t½ (converted))?
Its half-life is 149 h.

And the half-life ([1]; subcutaneous, single dose, read-out: mean terminal t½)?
The half-life was 120 to 168 h.

What about the “incidence of GI AEs (emesis, nausea)” value ([2]; Phase 1 dosing study, 6.0 mg or higher doses) of the same compound?
Its value is “higher-than-expected incidence of GI AEs”.

And the “individuals reporting TEAEs” value ([2]; single SC dose)?
The value was 97.1%.

And the injection-site reactions ([2]; single SC dose)?
Its injection-site reactions is “No injection-site reactions”.

What about the “individuals reporting TEAEs related to study treatment” value ([2]; single SC dose, 20 individuals) of the same compound?
The value was 57.1%.

What about the hypoglycemic episodes ([2]; single SC dose, all asymptomatic) of the same compound?
The hypoglycemic episodes was “low across all groups”.

And the “severity of AEs” value ([2]; single SC dose, dose-dependent)?
Its value is “mild to moderate in severity”.

What about the pulse rate ([2]; single SC dose, returned to baseline or near-baseline by Day 29) of the same compound?
The pulse rate was “Dose-related increases in pulse rate”.

What about the tolerability ([2]; single SC doses of 0.1, 0.3, 1.0 and 3.0 mg) of the same compound?
Its tolerability is “well tolerated”.

What about the “incidence of GI events (vomiting, abdominal distension, nausea)” value ([2]; single SC doses of 4.5 and 6.0 mg) of the same compound?
The value was “increased incidence of GI events”.
